Test results reported in patent US20150335634A1, “ISOQUINOLINE ALKALOID DERIVATIVE FOR ACTIVATING AMP-DEPENDENT PROTEIN KINASE” (ZIH YUAN TANG Biotechnology Co., Ltd, priority 2014, published 2015).

What was measured:
[1] = test system: AMP-dependent protein kinase (AMPK); assay: AMPK phosphorylation (Phospho-AMPKα Thr172 Western blot) in C2C12 myocytes; format: cell-based, mice
Method: C2C12 skeletal myoblast cell line was purchased from the Food Industry Research and Development Institute (Hsinchu, Taiwan). The C2C12 cell line was a cell line obtained from culturing the leg skeletal muscle of adult C3H mice in a cell incubator under 95% […], 5% CO2, and 37° C. The cells were cultured in a DMEM medium (Gibco/Invitrogen, Carlsbad, Calif.) containing 4.5 mg/mL glucose, 10% fetal bovine serum (FBS; Gibco/Invitrogen, Carlsbad, Calif.), and an antibiotic solution (with final concentrations of penicillin=100 IU/mL and streptomycin=100 μg/mL). When the C2C12 myoblast cells have proliferated to cover seven-tenths of the area in the petri dish, the fetal bovine serum was replaced by 2% horse serum (Gibco/Invitrogen, Carlsbad, Calif.) so as to induce the C2C12 myoblast cells to become the multi-nuclei myocytes. The C2C12 myoblast cells differentiated into myocytes in 4 days, and the culture medium of the cells was replaced with no-serum DMEM 24 hours before the experiments so as to reduce metabolism of the cells.
The C2C12 myocytes were treated respectively with 1 μM, 3 μM and 10 μM salsolinol and reticuline for 5 and 15 minutes. Then the C2C12 myocytes were rinsed with PBS buffer solution, and RIPA buffer solution containing protease inhibitors (20 mM Tris-HCl (pH 7.4), 100 mM NaCl, 1 mM EDTA, 1 mM EGTA, 0.1% SDS, 0.5% sodium deoxycholate, 1% NP-40, and 100X protease inhibitor cocktail) was added into the cells. The cells were collected and centrifuged on ice. Then, the concentrations of the supernatant samples were adjusted to be the same.
The supernatant samples were put through vertical electrophoresis isolation with 8% SDS-PAGE, and the isolated proteins were transferred onto a PVDF blotting membrane. After blotting was completed, the PVDF blotting membrane was removed and blocked for 1 hour under room temperature with a blocking buffer of TBST (Tris-buffered saline with Tween-20) with 5% non-fat milk. Then, the PVDF blotting membrane was placed into a 5% BSA and TBST solution containing the primary monoclonal antibodies Phospho-AMPKα (Thr172) (Cell Signaling) (1:1000) and AMPKα […] (Cell Signaling) (1:1000), respectively, and the primary immunoblotting reaction was performed under 4° C. Then, the PVDF blotting membrane was rinsed 3 times with TBST, and a TBST solution containing the secondary antibody goat anti-rabbit IgG (Perkin Elmer) (1:10000) was added to perform the secondary reaction for one hour under room temperature. Finally, the membrane was rinsed 3 times with TBST before ECL (enhanced chemiluminescence) was added to present color.

[2] = test system: ICR mice with Type II diabetes induced by high-sugar high-lipid food; assay: oral glucose tolerance test (OGTT) in ICR mice fed with high-lipid food and high fructose syrup; format: in vivo
Method: ICR mice were each fed with high-lipid food and high fructose syrup for 2 weeks. Then, salsolinol (10 mg/Kg/day) and Glibenclamide (10 mg/Kg) were administered on day 1. After 30 minutes, glucose (1 g/Kg) was orally administered and blood was taken from the mice immediately thereafter (this time point was designated as 0 minute). Blood was also taken later at 30, 60, 90, 120 and 150 minutes, and the blood glucose levels in the serum were determined
ICR mice were each fed with high-lipid food and high fructose syrup for 2 weeks, and then administered with salsolinol (10 mg/Kg/day) and Glibenclamide (10 mg/Kg) for 14 consecutive days. Afterwards, salsolinol (10 mg/Kg/day) and Glibenclamide (10 mg/Kg) were again administered, and glucose (1 g/Kg) was orally administered after 30 minutes and blood was taken from the mice immediately thereafter (this time point was designated as 0 minute). Blood was also taken later at 30, 60, 90, 120 and 150 minutes, and the blood glucose levels in the serum were determined.
The effect of blood glucose reduction was evaluated with the oral glucose tolerance test (OGTT). […] Blood was also taken later at 30, 60, 90, 120 and 150 minutes, and the blood glucose levels in the serum were determined after centrifugation.

insulin secretion = assay: effect on insulin secretion compared with Glibenclamide; settings: as opposed to Glibenclamide

## COc1ccc(C[C@H]2c3cc(O)c(OC)cc3CCN2C)cc1O [reticuline]
[1]; 3 μM, treated for 5 minutes
  AMPK phosphorylation relative to control cells: 1.52 times of that in the control cells
[1]; 3 μM, treated for 15 minutes
  AMPK phosphorylation relative to control cells: 1.04 times of that in the control cells
[1]; 10 μM, treated for 5 minutes
  AMPK phosphorylation relative to control cells: 2.05 times of that in the control cells
[1]; 10 μM, treated for 15 minutes
  AMPK phosphorylation relative to control cells: 2.07 times of that in the control cells

## CC1NCCc2cc(O)c(O)cc21 (centres unmarked) [salsolinol]
[2]; 10 mg/Kg/day for 14 consecutive days, glucose 1 g/Kg orally after 30 minutes, compared with Glibenclamide 10 mg/Kg (FIG. 4)
  long-term reduction of blood glucose (OGTT): blood glucose-reduction effect similar to that of Glibenclamide
[2]; 10 mg/Kg/day, administration on day 1, glucose 1 g/Kg orally after 30 minutes, compared with Glibenclamide 10 mg/Kg (FIG. 3)
  fast reduction of blood glucose (OGTT): blood glucose-reduction effect similar to that of Glibenclamide
Insulin secretion
  effect on insulin secretion: lower effect on insulin secretion
[1]; 10 μM, treated for 5 minutes
  AMPK phosphorylation relative to control cells: 1.66 times of that in the control cells
